The record followed here is ChEMBL document CHEMBL4732252, “Generating Selective Leads for Mer Kinase Inhibitors-Example of a Comprehensive Lead-Generation Strategy” (J Med Chem, 2021).

The structures appear in SMILES notation. pIC50: −log10 of the molar value. ≈ marks a conversion by molar mass, not a printed value.

The nature of series [1]: Intrinsic clearance in human liver microsomes. In kind it is ADME, Microsome. As to conditions: read-out: CLH. (In general: Liver microsomes are a subcellular fraction often used to study metabolism.)
Series [2] is described as follows: Intrinsic clearance in rat hepatocytes assessed per 10^6 cells. The following applies: read-out: CLH. The series is classed as ADME, cell-based, Hepatocyte.
Series [3] addresses T1, Receptor-type tyrosine-protein kinase FLT3 (Homo sapiens, UniProt P36888).
T1 sequence (P36888 whole entry): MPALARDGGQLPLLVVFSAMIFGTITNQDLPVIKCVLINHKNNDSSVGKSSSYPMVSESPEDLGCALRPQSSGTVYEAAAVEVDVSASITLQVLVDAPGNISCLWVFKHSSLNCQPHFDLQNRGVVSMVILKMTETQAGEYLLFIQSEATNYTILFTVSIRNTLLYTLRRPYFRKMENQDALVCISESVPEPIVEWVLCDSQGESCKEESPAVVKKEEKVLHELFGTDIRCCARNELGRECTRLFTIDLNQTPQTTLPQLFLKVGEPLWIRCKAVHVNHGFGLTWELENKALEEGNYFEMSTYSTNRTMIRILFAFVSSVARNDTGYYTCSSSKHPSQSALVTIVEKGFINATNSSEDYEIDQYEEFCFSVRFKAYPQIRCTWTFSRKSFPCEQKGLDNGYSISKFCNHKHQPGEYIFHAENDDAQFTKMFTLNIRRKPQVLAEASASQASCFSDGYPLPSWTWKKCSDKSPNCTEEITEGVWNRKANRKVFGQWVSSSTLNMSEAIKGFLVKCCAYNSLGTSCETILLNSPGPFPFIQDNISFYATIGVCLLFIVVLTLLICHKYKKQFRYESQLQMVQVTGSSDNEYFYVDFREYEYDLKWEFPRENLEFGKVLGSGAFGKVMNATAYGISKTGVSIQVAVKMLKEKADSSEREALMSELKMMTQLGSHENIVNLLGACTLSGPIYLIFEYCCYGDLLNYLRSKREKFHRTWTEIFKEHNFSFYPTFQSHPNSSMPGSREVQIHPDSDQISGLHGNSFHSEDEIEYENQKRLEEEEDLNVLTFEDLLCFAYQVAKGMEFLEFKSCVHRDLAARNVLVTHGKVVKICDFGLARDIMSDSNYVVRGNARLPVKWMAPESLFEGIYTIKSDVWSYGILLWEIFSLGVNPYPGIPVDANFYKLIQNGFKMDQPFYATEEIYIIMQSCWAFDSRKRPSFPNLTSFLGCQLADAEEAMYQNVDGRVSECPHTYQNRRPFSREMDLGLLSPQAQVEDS
In words: Inhibition of His6/TEV fused-GST-tagged Flt3 (unknown origin) (H564 to S993 residues) using Axltide (CKKSRGDYMTMQJ-acid) peptide as substrate preincubated for 30 mins followed by substrate and ATP addition at Km concentration measured after 75 mins by RapidFire LC-MS analysis.

Series [4] is described as follows: Aqueous solubility of the compound. In kind it is physicochemical.
The target in series [5] is Tyrosine-protein kinase receptor UFO (Homo sapiens) (UniProt P30530). Kind of series: Inhibition of GST-tagged AXL (unknown origin) ([…] residues) at 1 uM using Axltide (CKKSRGDYMTMQJG-acid) peptide as substrate preincubated for 30 mins followed by substrate and ATP addition at Km concentration measured after 180 mins by RapidFire LC-MS analysis relative to control. The following applies: time 210.0 min.

Series [6] is filed under the species Homo sapiens. In words: Selectivity ratio of pIC50 for His6/TEV fused-GST-tagged Flt3 (unknown origin) (H564 to S993 residues) to pIC50 for 6His/thrombin cleavage site-fused Avi-tagged dephosphorylated MER (unknown origin) (R528 to M999 residues).
Series [7] deals with T2, Tyrosine-protein kinase Mer (Homo sapiens) (UniProt Q12866).
T2 sequence (whole entry): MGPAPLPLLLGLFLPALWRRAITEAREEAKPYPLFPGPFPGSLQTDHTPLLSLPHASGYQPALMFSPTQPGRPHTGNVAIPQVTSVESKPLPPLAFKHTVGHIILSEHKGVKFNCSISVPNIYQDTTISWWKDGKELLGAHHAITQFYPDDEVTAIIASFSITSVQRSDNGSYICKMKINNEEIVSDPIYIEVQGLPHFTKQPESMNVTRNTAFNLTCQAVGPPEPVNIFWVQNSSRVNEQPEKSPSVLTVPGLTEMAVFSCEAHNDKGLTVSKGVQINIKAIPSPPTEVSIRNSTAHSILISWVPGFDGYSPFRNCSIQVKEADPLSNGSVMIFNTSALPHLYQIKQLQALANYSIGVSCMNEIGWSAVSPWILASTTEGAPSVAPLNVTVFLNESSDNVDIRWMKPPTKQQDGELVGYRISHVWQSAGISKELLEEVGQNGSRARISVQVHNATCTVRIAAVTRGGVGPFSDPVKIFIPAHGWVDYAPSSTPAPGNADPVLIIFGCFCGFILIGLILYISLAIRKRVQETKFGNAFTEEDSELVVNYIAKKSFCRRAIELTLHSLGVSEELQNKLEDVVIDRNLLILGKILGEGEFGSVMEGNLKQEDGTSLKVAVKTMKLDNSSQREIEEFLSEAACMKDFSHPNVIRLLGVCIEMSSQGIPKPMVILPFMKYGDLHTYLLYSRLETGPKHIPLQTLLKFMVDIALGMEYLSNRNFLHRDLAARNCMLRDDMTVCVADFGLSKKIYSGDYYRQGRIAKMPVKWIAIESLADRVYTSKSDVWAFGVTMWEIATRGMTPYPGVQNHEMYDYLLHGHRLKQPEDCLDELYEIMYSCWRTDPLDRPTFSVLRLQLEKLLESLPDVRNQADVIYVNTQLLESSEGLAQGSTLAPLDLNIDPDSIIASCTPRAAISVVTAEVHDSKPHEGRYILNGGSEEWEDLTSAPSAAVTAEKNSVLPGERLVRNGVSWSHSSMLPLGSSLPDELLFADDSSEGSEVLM
Kind of series: Inhibition of 6His/thrombin cleavage site-fused Avi-tagged dephosphorylated MER (unknown origin) (R528 to M999 residues) at 1 uM using Axltide (CKKSRGDYMTMQJG-acid) peptide as substrate preincubated for 30 mins followed by substrate and ATP addition at Km concentration measured after 120 mins by RapidFire LC-MS analysis relative to control. As to conditions: time 150.0 min.

The species named for series [8] is Homo sapiens. In words: Selectivity ratio of pIC50 for His6/TEV fused-GST-tagged Flt3 (unknown origin) (H564 to S993 residues) to pIC50 for GST-tagged AXL (unknown origin) ([…] residues).

Sequence of Tyrosine-protein kinase receptor UFO (Homo sapiens) (P30530 whole entry): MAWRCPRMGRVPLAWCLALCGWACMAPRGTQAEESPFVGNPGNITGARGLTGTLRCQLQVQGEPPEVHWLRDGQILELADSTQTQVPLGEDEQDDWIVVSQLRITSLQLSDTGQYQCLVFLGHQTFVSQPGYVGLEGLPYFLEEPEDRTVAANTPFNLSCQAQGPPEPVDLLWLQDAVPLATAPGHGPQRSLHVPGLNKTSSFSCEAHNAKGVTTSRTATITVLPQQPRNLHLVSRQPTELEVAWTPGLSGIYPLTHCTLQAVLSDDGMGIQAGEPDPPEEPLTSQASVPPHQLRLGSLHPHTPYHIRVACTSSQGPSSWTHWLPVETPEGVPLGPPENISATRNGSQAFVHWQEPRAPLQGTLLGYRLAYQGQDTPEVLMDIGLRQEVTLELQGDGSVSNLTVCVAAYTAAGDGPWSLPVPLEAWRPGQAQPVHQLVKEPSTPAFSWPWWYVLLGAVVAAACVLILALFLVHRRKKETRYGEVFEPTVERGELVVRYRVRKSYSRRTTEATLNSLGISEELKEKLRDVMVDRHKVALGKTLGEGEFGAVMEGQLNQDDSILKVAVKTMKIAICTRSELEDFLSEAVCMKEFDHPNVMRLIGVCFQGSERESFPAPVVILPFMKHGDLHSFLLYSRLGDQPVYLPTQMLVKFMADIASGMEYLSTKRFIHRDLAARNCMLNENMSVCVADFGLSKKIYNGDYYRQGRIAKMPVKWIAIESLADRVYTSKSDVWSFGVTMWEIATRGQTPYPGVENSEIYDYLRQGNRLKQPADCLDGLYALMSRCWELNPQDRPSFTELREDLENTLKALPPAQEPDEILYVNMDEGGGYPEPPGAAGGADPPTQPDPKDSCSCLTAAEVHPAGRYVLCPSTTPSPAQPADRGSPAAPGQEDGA

A word on the pIC50: it is the negative decadic logarithm of the IC50, by convention in mol/L. The term solubility denotes the dissolved amount per volume that the medium holds. Read a low solubility as a poorly soluble substance. With `CNC(=O)c1sc(N2CC3CC2(CNC(=O)c2c[nH]c4ncc(C)cc24)C3)nc1C(F)(F)F`, the microsomal CLint in series [1] is > 270 µL/min/mg. Further, the hepatocyte CLint in series [2] worked out at 92 µL/min/1e6 cells. For the same molecule, in series [3], the pIC50 was 5.80. The solubility in series [4] was < 1.6 µM.

Take `CN(Cc1ccc2nccn2c1)c1nnc(-c2ccc(OC3CCCC3)cc2)o1`: the microsomal CLint in series [1] came to 150 µL/min/mg. In addition, the hepatocyte CLint in series [2] stood at 52 µL/min/1e6 cells. Also, the pIC50 in series [3] is 4.70. The amount in solution in series [4] (solubility) came to 33 µM (≈ 12.9 µg/mL).

As to `CN(Cc1ccc2c(c1)CCCO2)c1nnc(-c2ccc(-c3ccccc3Cl)cc2)o1`, the microsomal CLint in series [1] worked out at 19 µL/min/mg. Besides, the hepatocyte CLint in series [2] stood at 19 µL/min/1e6 cells. In series [3], the negative-log IC50 (pIC50) was < 4.00. This molecule showed a solubility in series [4] of 0.1 µM (≈ 0.0432 µg/mL).

With `CN(Cc1ccc2nccn2c1)c1nnc(-c2ccc(-c3ccccc3Cl)nc2)o1`, the microsomal CLint in series [1] stood at 92 µL/min/mg. Further, the hepatocyte CLint in series [2] came out at 16 µL/min/1e6 cells. Also, the negative logarithm of the IC50 (pIC50) in series [3] was 4.80. The same molecule yielded a solubility in series [4] of 10 µM (≈ 4.17 µg/mL).

On to `CN(Cc1ccc2nccn2c1)c1nnc(-c2ccc(-c3ccccc3Cl)cc2)o1`, for which, in series [1], the microsomal CLint is 46 µL/min/mg. The hepatocyte CLint in series [2] came out at 21 µL/min/1e6 cells. Further, the negative logarithm of the IC50 (pIC50) in series [3] is 4.80. The molecule also showed a solubility in series [4] of 1.1 µM (≈ 0.457 µg/mL).

By inhibition is commonly meant the drop in the measured response relative to a control, in per cent. As to `CNC(=O)c1sc(N2CC3CC2(CNC(=O)c2c[nH]c4ncc(Cl)cc24)C3)nc1C(F)(F)F`, the microsomal CLint in series [1] was > 300 µL/min/mg. Besides, the inhibition in series [5] and in series [7] was > 75% each time. The Ratio pIC50 in series [6] and in series [8] was > 60 in each case. In addition, the hepatocyte CLint in series [2] was 120 µL/min/1e6 cells. For the same molecule, the negative-log IC50 (pIC50) in series [3] was 5.80. Further, the solubility in series [4] was 2 µM (≈ 0.998 µg/mL).

`O=S(=O)(c1ccc(Nc2ncc(N3CCOCC3)c(Nc3ccccc3)n2)cc1)N1CCCCC1`: in series [1], the microsomal CLint stood at 190 µL/min/mg. Moreover, the hepatocyte CLint in series [2] came out at 88 µL/min/1e6 cells. In addition, in series [3], the pIC50 is < 4.40. In addition, in series [4], the solubility was 0.6 µM (≈ 0.297 µg/mL).

For `COc1cc2ncnc(Nc3cnc(OCCC4CC4)nc3)c2cc1OCC1CCNCC1`, in series [1], the microsomal CLint was < 3 µL/min/mg. Moreover, in series [2], the hepatocyte CLint turned out to be 3 µL/min/1e6 cells. Further, the pIC50 in series [3] is < 4.30. In series [4], this molecule showed a solubility of 260 µM (≈ 117 µg/mL).

`CNC(=O)c1sc(N2CC3CC2(CNC(=O)c2c[nH]c4ncccc24)C3)nc1C(F)(F)F`: the microsomal CLint in series [1] was determined as 200 µL/min/mg. Further, the hepatocyte CLint in series [2] stood at 33 µL/min/1e6 cells. Further, the pIC50 in series [3] is 5.30. Further, the solubility in series [4] is < 1.6 µM.

Regarding `C[C@@H]1CN(c2cnc(Nc3cc(F)c(OCC4CC4)c(F)c3)nc2NC2CCOCC2)CCN1`, in series [1], the microsomal CLint was < 3 µL/min/mg. In addition, the hepatocyte CLint in series [2] was < 2.4 µL/min/1e6 cells. The negative logarithm of the IC50 (pIC50) in series [3] was 5.00. In addition, the solubility in series [4] came to 400 µM (≈ 190 µg/mL).

Regarding `CCn1c(-c2nnc(N(C)Cc3ccc4nccn4c3)o2)nc2ccccc21`, in series [1], the microsomal CLint came to 55 µL/min/mg. The hepatocyte CLint in series [2] came out at 22 µL/min/1e6 cells. The molecule also showed a pIC50 in series [3] of 5.20. The molecule further showed a solubility in series [4] of 120 µM (≈ 44.8 µg/mL).

Regarding `CNC(=O)c1sc(N2CC3CC2(CNC(=O)c2c[nH]c4ncc(C(F)(F)F)cc24)C3)nc1C(F)(F)F`, the microsomal CLint in series [1] was 130 µL/min/mg. In addition, the hepatocyte CLint in series [2] came to 78 µL/min/1e6 cells. In series [3], the negative-log IC50 (pIC50) is < 4.00. Further, the solubility in series [4] is < 1.6 µM.

Consider `CN(Cc1ccc2nccn2c1)c1nnc(-c2ncc(C(F)(F)F)cc2Cl)o1`, for which the microsomal CLint in series [1] was 11 µL/min/mg. Besides, in series [2], the hepatocyte CLint worked out at 6 µL/min/1e6 cells. The pIC50 in series [3] is < 4.00. In series [4], this molecule came in with a solubility of 301 µM (≈ 123 µg/mL).

For `Cc1cc(N(C)C)ccc1-c1nnc(N(C)Cc2ccc3nccn3c2)o1`, in series [1], the microsomal CLint stood at 55 µL/min/mg. For the same molecule, the hepatocyte CLint in series [2] is 44 µL/min/1e6 cells. Also, the pIC50 in series [3] was 4.50. For the same molecule, in series [4], the concentration in solution (solubility) came to 23 µM (≈ 8.34 µg/mL).

Regarding `Cc1c(C(=O)Nc2ccc(Oc3ccnc4[nH]cc(-c5ccccc5)c34)c(F)c2)c(=O)n(-c2ccc(F)cc2)n1C`, in series [1], the microsomal CLint came out at 16 µL/min/mg. The hepatocyte CLint in series [2] stood at 210 µL/min/1e6 cells. This molecule also gave a negative-log IC50 (pIC50) in series [3] of 7.20. The same molecule came in with a solubility in series [4] of 0.01 µM (≈ 0.00552 µg/mL).

For the molecule `CNC(=O)C[C@@H](NC(=O)[C@@H](CCc1ccccc1)NC(=O)c1c(C)noc1-c1snnc1C)c1ccc(C(F)(F)F)cc1`, the microsomal CLint in series [1] is > 300 µL/min/mg. The hepatocyte CLint in series [2] is 260 µL/min/1e6 cells. For the same molecule, the pIC50 in series [3] was < 4.00. In addition, the solubility in series [4] was < 0.2 µM.

On to `CNc1nc(OCC2CCC2)nc2c1ncn2Cc1c(F)cccc1F`, for which the microsomal CLint in series [1] was > 270 µL/min/mg. Further, the hepatocyte CLint in series [2] was 160 µL/min/1e6 cells. Further, in series [3], the pIC50 is < 4.30. This molecule also yielded a solubility in series [4] of 4 µM (≈ 1.44 µg/mL).
